Four compounds from ChEMBL document CHEMBL3046594, “Bioactive metabolites from an endophytic fungus of Aspergillus species isolated from seeds of Gloriosa superba Linn” (Med Chem Res, 2013) can be followed below.

Active and inactive are the calls of the source. No cut-off for these calls is given here.

Test [1] has as its system Salmonella typhi. The test is described as follows: Antibacterial activity against Salmonella enterica subsp. enterica serovar Typhi MTCC 1251 assessed as growth inhibition at 5 ug/disk after 24 hr by disk diffusion method. In kind it is functional. The note with it: MTCC 1251, 24 h, read-out: DIZ.
Test [2] relates to Pseudomonas aeruginosa. In words: Antibacterial activity against Pseudomonas aeruginosa MTCC 2642 assessed as growth inhibition at 5 ug/disk after 24 hr by disk diffusion method. The class given is functional. Conditions: MTCC 2642, 24 h, read-out: DIZ.
Test [3] has as its system Staphylococcus aureus. In words: Antibacterial activity against Staphylococcus aureus MTCC 96 assessed as growth inhibition at 5 ug/disk after 24 hr by disk diffusion method. The note with it: MTCC 96, 24 h, read-out: DIZ. The class given is functional.
The subject of test [4] is Escherichia coli. The test is described as follows: Antibacterial activity against Escherichia coli MTCC 82 assessed as growth inhibition at 5 ug/disk after 24 hr by disk diffusion method. The class given is functional. The note with it: MTCC 82, 24 h, read-out: DIZ.
The test system of test [5] is Bacillus subtilis. The test is described as follows: Antibacterial activity against Bacillus subtilis MTCC 2451 assessed as growth inhibition at 5 ug/disk after 24 hr by disk diffusion method. The class given is functional. Conditions: MTCC 2451, 24 h, read-out: DIZ. Background: In agar diffusion tests the substance spreads into inoculated agar from a disc or well.

Test [6] relates to Saccharomyces cerevisiae. In words: Antifungal activity against Saccharomyces cerevisiae MTCC 172 assessed as growth inhibition at 10 ug/disk after 48 hr by disk diffusion method. The note with it: MTCC 172, 48 h, read-out: DIZ. In kind it is functional.
In test [7] the test system is Candida albicans. The test is described as follows: Antifungal activity against Candida albicans MTCC 3018 assessed as growth inhibition at 10 ug/disk after 48 hr by disk diffusion method. The class given is functional. Conditions: MTCC 3018, 48 h, read-out: DIZ.
Test [8] concerns Goffeauzyma gastrica. The test is described as follows: Antifungal activity against Cryptococcus gastricus MTCC 1715 assessed as growth inhibition at 10 ug/disk after 48 hr by disk diffusion method. In kind it is functional. The note with it: MTCC 1715, 48 h, read-out: DIZ.
Test [9] relates to MCF7. In words: Cytotoxicity against Homo sapiens (human) MCF7 cells assessed as growth inhibition at 1 uM after 48 hr by SRB assay. The class given is functional. The note with it: MCF7, 48 h, read-out: GI. (In general: In SRB staining, fixed cells bind dye roughly in proportion to their protein.)
The subject of test [10] is OVCAR-5. In words: Cytotoxicity against Homo sapiens (human) OVCAR5 cells assessed as growth inhibition at 1 uM after 48 hr by SRB assay. In kind it is functional. Conditions: OVCAR-5, 48 h, read-out: GI.
The subject of test [11] is Bacillus subtilis. The test is described as follows: Antibacterial activity against Bacillus subtilis MTCC 2451 assessed as growth inhibition at 2 mg/mL after 24 hr by disk diffusion method. In kind it is functional.
Test [12] has as its system Staphylococcus aureus. In words: Antibacterial activity against Staphylococcus aureus MTCC 96 assessed as growth inhibition at 2 mg/mL after 24 hr by disk diffusion method. The class given is functional. The note with it: MTCC 96, 24 h, read-out: DIZ.
Test [13] relates to Saccharomyces cerevisiae. In words: Antifungal activity against Saccharomyces cerevisiae MTCC 172 assessed as growth inhibition at 2 mg/mL after 48 hr by disk diffusion method. The class given is functional.
The test system of test [14] is Candida albicans. In words: Antifungal activity against Candida albicans MTCC 3018 assessed as growth inhibition at 2 mg/mL after 48 hr by disk diffusion method. The class given is functional.
Test [15] concerns Escherichia coli. The test is described as follows: Antibacterial activity against Escherichia coli MTCC 82 assessed as growth inhibition at 2 mg/mL after 24 hr by disk diffusion method. The class given is functional.
Test [16] relates to Pseudomonas aeruginosa. The test is described as follows: Antibacterial activity against Pseudomonas aeruginosa MTCC 2642 assessed as growth inhibition at 2 mg/mL after 24 hr by disk diffusion method. The class given is functional. The note with it: MTCC 2642, 24 h, read-out: DIZ.
Test [17] relates to Goffeauzyma gastrica. The test is described as follows: Antifungal activity against Cryptococcus gastricus MTCC 1715 assessed as growth inhibition at 2 mg/mL after 48 hr by disk diffusion method. The class given is functional.
For test [18], the system named is Salmonella typhi. In words: Antibacterial activity against Salmonella enterica subsp. enterica serovar Typhi MTCC 1251 assessed as growth inhibition at 2 mg/mL after 24 hr by disk diffusion method. The class given is functional, organism-based.

`CC1(C)S[C@@H]2[C@H](NC(=O)[C@H](N)c3ccc(O)cc3)C(=O)N2[C@H]1C(=O)O` [AMOXICILLIN]: the zone of inhibition at 5 µg/disc in test [1] was 18 mm; in test [2] it was 19 mm; in test [3] it was 21 mm; in [4] it was 20 mm; in [5] it was 20 mm.

Regarding `OC(Cn1cncn1)(Cn1cncn1)c1ccc(F)cc1F` [FLUCONAZOLE], the zone of inhibition at 10 µg/disc in test [6] was found to be 21 mm; in test [7], 20 mm; in [8], 19.7 mm.

Turning to `CO[C@@]12[C@H](COC(N)=O)C3=C(C(=O)C(C)=C(N)C3=O)N1C[C@@H]1N[C@@H]12` [MITOMYCIN], the inhibition of growth at 1 µM was 82% in test [9] and 71% in test [10].

For `CC(C)[C@@H](C)/C=C/[C@@H](C)[C@H]1CC[C@H]2C3=CC=C4C[C@@H](O)CC[C@]4(C)[C@H]3CC[C@]12C` [ERGOSTEROL], the “growth inhibition (GI)” value in test [11], in [13], in [14], in test [15], in test [17] and in [18] was “inactive” throughout. The zone of inhibition at 2000 µg/mL in test [12] came out at 11.2 mm; in test [16], 8.7 mm.
